# Entries after “also recorded” stand apart in the source; their conditions may differ.
# Assays:
# [1] = tested on: fibrin-induced microglia activation; assay: fibrin-induced microglia activation assay; format: cell-based; conditions: dose-dependent, fibrin stimulus, read-out: IC50, inhibition of fibrin-induced microglia activation
# Text: (§1) To identify inhibitors of microglia activation, an assay as described in U.S. Ser. No. 15/109,163, was used to screen a library of 1907 clinical drugs and bioactive compounds. The criteria for hits were ≥50% inhibition of activation and ≤3% cell death to exclude toxic compounds. This represents a three standard deviation difference from the mean value of negative control activated cells. 128 compounds were selected from the screen that satisfied these criteria for dose response curves. Acivicin, a γ-glutamyl transpeptidase inhibitor, was identified among the compounds and was selected for additional characterization as it was an unexpected target for microglial activation and had not been previously linked with neurological diseases.
# (§2) Throughout assay development, we consistently observed multiple-fold proliferation (increase in cell count) of microglia upon activation. Proliferation of fibrin-activated microglia cells was inhibited by treatment with acivicin. […] We also examined the effect of acivicin on microglia activation by other immunostimulatory agents.
# [2] = tested on: LPS-induced microglia activation; assay: LPS-induced microglia activation assay; format: cell-based; conditions: LPS stimulus; comparable to fibrin (FIG. 4)
# Text: as §1, §2
# microglia = assay: cell toxicity in the microglia activation assay; format: cell-based; conditions: up to highest assay concentration of 20 μM
# Text: as §1, §2
# [3] = tested on: fibrin-activated microglia cells; assay: proliferation of fibrin-activated microglia cells; format: cell-based; conditions: increase in cell count upon activation; dose-dependent (FIG. 3)
# Text: as §2
# MOG35-55 induced EAE = assay: chronic EAE model (MOG35-55), prophylactic treatment, clinical score; format: in vivo; conditions: MOG35-55 mice; daily i.p. starting 0 day after immunization; vs saline
# Text: (§3) To further study the ability of acivicin to inhibit microglial activation, acivicin was next studies for its ability to suppress disease progression and ameliorate the disease symptoms in the EAE animal models of multiple sclerosis. Two models of EAE were used: (1) mice immunized with MOG35-55 to induce chronic disease and (2) mice immunized with PLP139-151 to induce relapsing-remitting EAE.
# First, to examine the ability of acivicin to prevent disease symptoms and/or progression to multiple sclerosis in a chronic EAE model, acivicin or saline were administered prophylactically to mice immunized with MOG35-55 to induce chronic disease. The mice were immunized with MOG35-55 to induce chronic disease. Acivicin or saline was administered daily by intraperitoneal (i.p.) injection, starting 0 day after immunization (n=15 saline, n=14 acivicin).
# PLP139-151 induced EAE = assay: relapsing-remitting EAE model (PLP139-151), therapeutic treatment, clinical score; format: in vivo; conditions: PLP139-151 mice; daily i.p. starting at peak EAE; vs saline
# Text: as §3
# Next, to assess the ability to therapeutic efficacy of acivicin to treat disease symptoms and/or progression in relapsing-remitting (PLP139-151) EAE model, mice were administered either acivicin or saline injections daily by intraperitoneal (i.p.) injection starting at the peak EAE phase of the EAE PLP139-151. (n=6 saline, and n=7 acivicin). Acivicin decreased the clinical severity of EAE during remission phases (FIG. 7).
# [4] = tested on: Cx3cr1+ microglia and Ccr2+ monocytes; assay: microglial accumulation and monocyte infiltration in Ccr2RFP/+Cx3cr1GFP/+ mice with MOG35-55 EAE; format: in vivo; conditions: prophylactic injection
# Text: CNS-resident innate immune cell microglia and CNS-infiltrating inflammatory monocytes are essential for the inflammatory progression of EAE. Yamasaki, R. et al. J Exp Med 211, 1533-1549 (2014); Ajami, B. et al, Nature neuroscience 14, 1142-1149 (2011). To determine whether blocking the γ-glutamyl transpeptidase activity with acivicin inhibits microglial activation and infiltration of monocytes/macrophages in vivo in the EAE models, Ccr2^RFP/+Cx3cr1^GFP/+ mice in which resident microglia are GFP-positive and inflammatory monocytes are RFP-positive were used. Ryu, J. K. et al. Nat Commun 6, 8164 (2015). EAE was induced with MOG35-55, and mice were prophylactically injected with acivicin.
# [5] = tested on: myelin damage and neuronal injury in EAE; assay: MBP and SMI-32 immunohistochemistry in EAE; format: in vivo; conditions: after EAE induction; vs saline-treated mice
# Text: To investigate whether acivicin can protect from myelin damage and neurodegeneration in EAE, MBP and SMI-32 immunohistochemistry was used to assess myelin damage and neuronal injury.
# [6] = tested on: pro-inflammatory gene expression; assay: real-time PCR of pro-inflammatory genes in spinal cords at the peak of EAE; format: in vivo, mice; conditions: spinal cord, peak of MOG35-55 EAE; vs saline
# Protocol: To gain insight into the anti-inflammatory mechanism by which acivicin regulates the progression of inflammation after EAE, real-time PCR analysis was used. Real-time PCR analysis of expression of pro-inflammatory genes in the spinal cords of MOG35-55 treated mice was performed at the peak of EAE in the saline-treated and acivicin-treated mice (n=7 saline and n=7 acivicin).
smiles,measurement,setting,value
N[C@H](C(=O)O)[C@@H]1CC(Cl)=NO1 [acivicin],IC50,[1],2000 nM
same,inhibition of microglia activation by LPS (potency),[2],comparable low μM potency
same,toxic cell death / cell toxicity,microglia,no apparent cell toxicity; also recorded: not evident
same,proliferation of fibrin-activated microglia cells,[3],inhibited
same,acute phase of EAE (clinical score),MOG35-55 induced EAE,completely inhibited
same,clinical severity of EAE during remission phases,PLP139-151 induced EAE,decreased
same,accumulation of Cx3cr1+ microglia (% area GFP in spinal cord),[4],significantly decreased
same,infiltration of Ccr2+ monocytes (% area RFP),[4],significantly decreased
same,axonal injury (SMI-32 immunohistochemistry),[5],dramatic reduction
same,myelin damage (MBP immunohistochemistry),[5],dramatic reduction
same,EAE-induced transcription of Ccl5,[6],inhibits
same,EAE-induced transcription of Cxcl10,[6],inhibits
same,EAE-induced transcription of IL-1b,[6],inhibits
same,EAE-induced transcription of IL-12p40,[6],inhibits
same,EAE-induced transcription of iNOS,[6],inhibits

# From US20200289473A1, “METHODS OF TREATING NEURODEGENERATION” (The J David Gladstone Institutes a testamentary trust …, priority 2017, published 2020)
